Source: PubChem BioAssay AID1745844 (Carcinogenic Potency Database (CPDB), 2022)
“And” between values parts separate entries of the source, which are not always exact repeats. Equal entries are not always repeated. The source made the active and inactive calls. The rule behind the calls is not given here.

Test system: rodent lifetime carcinogenesis bioassay, tumor incidence TD50
Experiment: carcinogenic potency in animals, long-term in vivo studies, CPDB compilation (AID 1745844)

O=NO
TD50 (hamster, strain Syrian Golden, females, in feed, site: any site (literature study), lesion: one or several types, types not named, dosed 97 weeks, study length 97 weeks): 477 mg/kg/day | TD50 (mouse, strain B6C3F1, females, in drinking water, site: any site (literature study), lesion: several types, types named in the paper, dosed 104 weeks, study length 104 weeks): 459 mg/kg/day | TD50 (mouse, strain B6C3F1, females, in drinking water, site: forestomach, lesion: squamous-cell carcinoma + squamous-cell papilloma, dosed 104 weeks, study length 104 weeks): 1610 mg/kg/day | TD50 (mouse, strain B6C3F1, females, in drinking water, site: lung, lesion: alveolar/bronchiolar adenoma + alveolar/bronchiolar carcinoma, dosed 104 weeks, study length 104 weeks): 843 mg/kg/day | TD50 (mouse, strain B6C3F1, males, in drinking water, site: any site (literature study), lesion: several types, types named in the paper, dosed 104 weeks, study length 104 weeks): 9190 mg/kg/day (inactive) | TD50 (mouse, strain B6C3F1, males, in drinking water, site: lung, lesion: alveolar/bronchiolar adenoma + alveolar/bronchiolar carcinoma, dosed 104 weeks, study length 104 weeks): 990 mg/kg/day | carcinogen call (mouse, strain C57BL/6, females, in drinking water, site: liver, lesion: several types, types named in the paper, dosed 117 weeks, study length 126 weeks): negative (inactive) | TD50 (mouse, strain C57BL/6, females, in drinking water, site: lung, lesion: one or several types, types not named, dosed 117 weeks, study length 126 weeks): 5200 mg/kg/day (inactive) | carcinogen call (mouse, strain C57BL/6, females, in feed, site: any site (literature study), lesion: several types, types named in the paper, dosed 52 weeks, study length 69 weeks): negative (inactive) | carcinogen call (mouse, strain C57BL/6, females, in feed, site: liver, lesion: hepatocellular carcinoma, dosed 52 weeks, study length 69 weeks): negative (inactive) | carcinogen call (mouse, strain C57BL/6, females, in feed, site: lung, lesion: adenoma, dosed 52 weeks, study length 69 weeks): negative (inactive) | TD50 (mouse, strain C57BL/6, males, in feed, site: any site (literature study), lesion: several types, types named in the paper, dosed 52 weeks, study length 69 weeks): 1210 mg/kg/day (inactive) | carcinogen call (mouse, strain C57BL/6, males, in feed, site: liver, lesion: hepatocellular carcinoma, dosed 52 weeks, study length 69 weeks): negative (inactive) | TD50 (mouse, strain C57BL/6, males, in feed, site: lung, lesion: adenoma, dosed 52 weeks, study length 69 weeks): 1610 mg/kg/day (inactive) | carcinogen call (mouse, strain ICR/Jcl, females, in drinking water, site: any site (literature study), lesion: several types, types named in the paper, dosed 109 weeks, study length 109 weeks): negative (inactive) | carcinogen call (mouse, strain ICR/Jcl, females, in drinking water, site: liver, lesion: one or several types, types not named, dosed 109 weeks, study length 109 weeks): negative (inactive) | TD50 (mouse, strain ICR/Jcl, females, in drinking water, site: lung, lesion: one or several types, types not named, dosed 109 weeks, study length 109 weeks): 7230 mg/kg/day (inactive) | carcinogen call (mouse, strain ICR/Jcl, males, in drinking water, site: any site (literature study), lesion: several types, types named in the paper, dosed 109 weeks, study length 109 weeks): negative (inactive) | TD50 (mouse, strain ICR/Jcl, males, in drinking water, site: liver, lesion: one or several types, types not named, dosed 109 weeks, study length 109 weeks): 25000 mg/kg/day (inactive) | TD50 (mouse, strain ICR/Jcl, males, in drinking water, site: lung, lesion: one or several types, types not named, dosed 109 weeks, study length 109 weeks): 16300 mg/kg/day (inactive) | TD50 (mouse, strain Swiss CD-1, females, in drinking water, site: liver, lesion: hepatocellular tumor, dosed 34 weeks, study length 125 weeks): 744 mg/kg/day (inactive) | carcinogen call (mouse, strain Swiss CD-1, females, in drinking water, site: lung, lesion: one or several types, types not named, dosed 34 weeks, study length 125 weeks): negative (inactive) | carcinogen call (mouse, strain Swiss CD-1, males, in drinking water, site: liver, lesion: hepatocellular tumor, dosed 34 weeks, study length 115 weeks): negative (inactive) | TD50 (mouse, strain Swiss CD-1, males, in drinking water, site: lung, lesion: one or several types, types not named, dosed 34 weeks, study length 115 weeks): 103 mg/kg/day (inactive) | carcinogen call (mouse, strain VM, females, in drinking water, site: brain, lesion: glioma, dosed 134 weeks, study length 134 weeks): negative (inactive) | carcinogen call (mouse, strain VM, males, in drinking water, site: brain, lesion: glioma, dosed 113 weeks, study length 113 weeks): negative (inactive) | TD50 (rat, strain Charles River CD (Sprague-Dawley), both sexes, in feed, site: all sites, lesion: malignant lymphoma, dosed 123 weeks, study length 123 weeks): 539 mg/kg/day | TD50 (rat, strain Charles River CD (Sprague-Dawley), both sexes, in feed, site: liver, lesion: angiosarcoma, dosed 123 weeks, study length 123 weeks): 5840 mg/kg/day | TD50 (rat, strain Charles River CD (Sprague-Dawley), both sexes, in feed, site: spleen, lesion: lymphoma, dosed 123 weeks, study length 123 weeks): 601 mg/kg/day | carcinogen call (rat, strain F344/DuCrj, males, in drinking water, site: forestomach, lesion: one or several types, types not named, dosed 51 weeks, study length 51 weeks): negative (inactive) | carcinogen call (rat, strain F344/DuCrj, males, in drinking water, site: stomach, glandular, lesion: one or several types, types not named, dosed 51 weeks, study length 51 weeks): negative (inactive) | TD50 (rat, strain Fischer 344, females, in drinking water, site: adrenal gland, lesion: medullary tumor, dosed 104 weeks, study length 128 weeks): 163 mg/kg/day | TD50 (rat, strain Fischer 344, females, in drinking water, site: any site (literature study), lesion: several types, types named in the paper, dosed 104 weeks, study length 104 weeks): 74400 mg/kg/day (inactive) | carcinogen call (rat, strain Fischer 344, females, in drinking water, site: any site (literature study), lesion: several types, types named in the paper, dosed 104 weeks, study length 120 weeks): negative (inactive) | TD50 (rat, strain Fischer 344, females, in drinking water, site: liver, lesion: hepatocellular carcinoma, dosed 104 weeks, study length 128 weeks): 1550 mg/kg/day | TD50 (rat, strain Fischer 344, females, in drinking water, site: liver, lesion: neoplastic nodule, dosed 104 weeks, study length 128 weeks): 185 mg/kg/day | carcinogen call (rat, strain Fischer 344, females, in drinking water, site: liver, lesion: several types, types named in the paper, dosed 104 weeks, study length 120 weeks): negative (inactive) | TD50 (rat, strain Fischer 344, females, in drinking water, site: liver, lesion: several types, types named in the paper, dosed 104 weeks, study length 128 weeks): 153 mg/kg/day | TD50 (rat, strain Fischer 344, females, in drinking water, site: mammary tissue, wider than the gland, lesion: one or several types, types not named, dosed 104 weeks, study length 128 weeks): 115 mg/kg/day | TD50 (rat, strain Fischer 344, females, in drinking water, site: thyroid gland, lesion: carcinoma, dosed 104 weeks, study length 128 weeks): 163 mg/kg/day | TD50 (rat, strain Fischer 344, females, in drinking water, site: uterus, lesion: polyp, dosed 104 weeks, study length 128 weeks): 218 mg/kg/day | carcinogen call (rat, strain Fischer 344, females, in feed, site: any site (literature study), lesion: several types, types named in the paper, dosed 52 weeks, study length 69 weeks): negative (inactive) | TD50 (rat, strain Fischer 344, females, in feed, site: liver, lesion: carcinoma, dosed 104 weeks, study length 130 weeks): 470 mg/kg/day | TD50 (rat, strain Fischer 344, females, in feed, site: liver, lesion: hepatocellular carcinoma, dosed 104 weeks, study length 128 weeks): 629 mg/kg/day | TD50 (rat, strain Fischer 344, females, in feed, site: liver, lesion: hepatocellular carcinoma, dosed 104 weeks, study length 130 weeks): 516 mg/kg/day | TD50 (rat, strain Fischer 344, females, in feed, site: liver, lesion: neoplastic nodule, dosed 104 weeks, study length 128 weeks): 164 mg/kg/day | TD50 (rat, strain Fischer 344, females, in feed, site: liver, lesion: neoplastic nodule, dosed 104 weeks, study length 130 weeks): 199 mg/kg/day and 218 mg/kg/day | carcinogen call (rat, strain Fischer 344, females, in feed, site: liver, lesion: one or several types, types not named, dosed 52 weeks, study length 69 weeks): negative (inactive) | TD50 (rat, strain Fischer 344, females, in feed, site: liver, lesion: several types, types named in the paper, dosed 104 weeks, study length 128 weeks): 141 mg/kg/day | TD50 (rat, strain Fischer 344, females, in feed, site: liver, lesion: several types, types named in the paper, dosed 104 weeks, study length 130 weeks): 124 mg/kg/day and 136 mg/kg/day | carcinogen call (rat, strain Fischer 344, males, in drinking water, site: any site (literature study), lesion: several types, types named in the paper, dosed 104 weeks, study length 120 weeks): negative (inactive) | TD50 (rat, strain Fischer 344, males, in drinking water, site: liver, lesion: hepatocellular adenoma + hepatoblastoma + hepatocellular carcinoma, dosed 104 weeks, study length 104 weeks): 6550 mg/kg/day | TD50 (rat, strain Fischer 344, males, in drinking water, site: liver, lesion: hepatocellular carcinoma, dosed 104 weeks, study length 128 weeks): 1040 mg/kg/day | TD50 (rat, strain Fischer 344, males, in drinking water, site: liver, lesion: several types, types named in the paper, dosed 104 weeks, study length 120 weeks): 1310 mg/kg/day (inactive) | TD50 (rat, strain Fischer 344, males, in drinking water, site: liver, lesion: several types, types named in the paper, dosed 104 weeks, study length 128 weeks): 946 mg/kg/day | TD50 (rat, strain Fischer 344, males, in drinking water, site: skin, lesion: fibroma, dosed 104 weeks, study length 104 weeks): 667 mg/kg/day (inactive) | carcinogen call (rat, strain Fischer 344, males, in feed, site: all sites, lesion: granulocytic leukemia, dosed 115 weeks, study length 115 weeks): negative (inactive) | carcinogen call (rat, strain Fischer 344, males, in feed, site: all sites, lesion: mononuclear-cell leukemia, dosed 115 weeks, study length 115 weeks): negative (inactive) | carcinogen call (rat, strain Fischer 344, males, in feed, site: any site (literature study), lesion: one or several types, types not named, dosed 115 weeks, study length 115 weeks): negative (inactive) | carcinogen call (rat, strain Fischer 344, males, in feed, site: any site (literature study), lesion: several types, types named in the paper, dosed 52 weeks, study length 69 weeks): negative (inactive) | TD50 (rat, strain Fischer 344, males, in feed, site: liver, lesion: neoplastic nodule, dosed 104 weeks, study length 130 weeks): 467 mg/kg/day and 674 mg/kg/day | carcinogen call (rat, strain Fischer 344, males, in feed, site: liver, lesion: one or several types, types not named, dosed 52 weeks, study length 69 weeks): negative (inactive) | TD50 (rat, strain Fischer 344, males, in feed, site: liver, lesion: several types, types named in the paper, dosed 104 weeks, study length 130 weeks): 445 mg/kg/day and 641 mg/kg/day | carcinogen call (rat, strain Fischer 344, males, in feed, site: several sites, sites named in the paper, lesion: lymphoma, dosed 115 weeks, study length 115 weeks): negative (inactive) | carcinogen call (rat, strain Fischer 344, males, in feed, site: testis, lesion: interstitial-cell tumor, dosed 115 weeks, study length 115 weeks): negative (inactive) | carcinogen call (rat, strain MRC, females, in drinking water, site: any site (literature study), lesion: one or several types, types not named, dosed 67 weeks, study length 122 weeks): negative (inactive) | TD50 (rat, strain MRC, females, in drinking water, site: any site (literature study), lesion: several types, types named in the paper, dosed 84 weeks, study length 104 weeks): 57.3 mg/kg/day (inactive) | carcinogen call (rat, strain MRC, females, in drinking water, site: liver, lesion: one or several types, types not named, dosed 67 weeks, study length 122 weeks): negative (inactive) | carcinogen call (rat, strain MRC, males, in drinking water, site: any site (literature study), lesion: one or several types, types not named, dosed 67 weeks, study length 122 weeks): negative (inactive) | TD50 (rat, strain MRC, males, in drinking water, site: any site (literature study), lesion: several types, types named in the paper, dosed 84 weeks, study length 104 weeks): 61.9 mg/kg/day (inactive) | carcinogen call (rat, strain MRC, males, in drinking water, site: liver, lesion: one or several types, types not named, dosed 67 weeks, study length 122 weeks): negative (inactive) | carcinogen call (rat, strain Wistar, males, in drinking water, site: liver, lesion: hepatocellular carcinoma, dosed 94 weeks, study length 94 weeks): negative (inactive) | carcinogen call (rat, strain Wistar, males, in drinking water, site: liver, lesion: one or several types, types not named, dosed 102 weeks, study length 102 weeks): negative (inactive) | carcinogen call (rat, strain Wistar, males, in drinking water, site: lung, lesion: one or several types, types not named, dosed 94 weeks, study length 94 weeks): negative (inactive) | carcinogen call (rat, strain Wistar, males, in drinking water, site: nasal cavity, lesion: one or several types, types not named, dosed 94 weeks, study length 94 weeks): negative (inactive) | TD50 (rat, strain Wistar, males, in feed, site: liver, lesion: several types, types named in the paper, dosed 92 weeks, study length 92 weeks): 155 mg/kg/day
